Reference: patent publication US20040224958A1, “Pyridopyrimidinone derivatives for treatment of neurodegenerative disease” (priority 2000, published 2004)

Experiments:
cdk2/cyclinE = cdk2/cyclinE (Homo sapiens, UniProt P24941); assay: Cyclin-Dependent Kinase Assay cdk2/cyclinE; conditions: cdk2/E IC50
Cdk5/p25 = Cdk5/p25 (Homo sapiens, UniProt Q00535); assay: Cyclin-Dependent Kinase 5 High Throughput Screening (cdk5-HTS) Assay; format: biochemical; conditions: high throughput screen
Procedure: Cyclin-Dependent Kinase 5 High Throughput Screening (cdk5-HTS) Assay
Enzyme assays for IC50 determinations were performed in 96-Pierce Reacti-Bind™ White Opaque Glutatione Coated Plates (Cat. No. 15240B).
The total volume was 0.100 mL containing a final concentration of 50 mM TRIS (tris[hydroxymethyl]aminomethane) at pH 7.4, 50 mM NaCl, 10 mM MgCl2, 5 mM dithiothreitol, 20 μM ATP containing 16 μCi/mL of Redivue[y33P]ATP (Amersham Pharmacia Biotech Cat. No. AH9968), 1.0 μg/mL Cdk5/p25, 20 μg/mL GST-RbCOOH, and appropriate dilutions of a compound of the present invention. The reaction was started by adding[^33P]ATP, and the plate was shaken for 30 seconds, then incubated at room temperature for 30 minutes. The reaction was terminated by addition of 0.05 mL of 120 mM EDTA. The plate was kept at room temperature for 45 minutes to allow substrate to bind to the walls of the plate. The wells were then washed three times with 0.2 mL of 1×PBS. Once thoroughly dry, 0.140 mL of MicroScint™2O (Packard Bioscience Cat. No. 87-9081) cocktail was added to all wells. The incorporation of ^33P was determined with a beta plate counter (Packard Topcount).

cdc2/cyclinB = cdc2/cyclinB (Homo sapiens, UniProt P06493); assay: Cyclin-Dependent Kinase Assay cdc2/cyclinB
cdk4/D = cdk4/D (Homo sapiens, UniProt P11802); assay: Cyclin-Dependent Kinase 4 (cdk4) Assay; format: biochemical; conditions: read-out: cdk4/D IC50
Procedure: A typical assay, for instance, measures inhibitory activity against the cyclin D dependent kinase 4 enzyme (cdk4/D). […] The cdk4 assay was carried out as follows.
Cyclin-Dependent Kinase 4 (cdk4) Assay
All components except the ATP were added to the wells, and the plate was placed on a plate mixer for 2 minutes. The reaction was started by adding [^32P]ATP and the plate was incubated at 25° C. for 15 minutes. The reaction was terminated by addition of 0.1 mL of 20% trichloroacetic acid (TCA). The plate was kept at 4° C. for at least 1 hour to allow the substrate to precipitate. The wells were then washed five times with 0.2 mL of 10% TCA and ^32P incorporation was determined with a beta plate counter (Wallac Inc., Gaithersburg, Md.).

Chain of cdc2/cyclinB (P06493 whole entry): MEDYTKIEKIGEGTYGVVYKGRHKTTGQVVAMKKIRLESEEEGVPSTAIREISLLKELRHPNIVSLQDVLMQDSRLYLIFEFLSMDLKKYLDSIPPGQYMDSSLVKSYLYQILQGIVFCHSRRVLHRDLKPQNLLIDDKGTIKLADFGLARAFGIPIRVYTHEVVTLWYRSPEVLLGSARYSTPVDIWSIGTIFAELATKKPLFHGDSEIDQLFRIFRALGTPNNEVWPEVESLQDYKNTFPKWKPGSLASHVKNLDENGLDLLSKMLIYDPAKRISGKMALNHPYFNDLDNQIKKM
Chain of cdc2/cyclinB (P14635 whole entry, further chain): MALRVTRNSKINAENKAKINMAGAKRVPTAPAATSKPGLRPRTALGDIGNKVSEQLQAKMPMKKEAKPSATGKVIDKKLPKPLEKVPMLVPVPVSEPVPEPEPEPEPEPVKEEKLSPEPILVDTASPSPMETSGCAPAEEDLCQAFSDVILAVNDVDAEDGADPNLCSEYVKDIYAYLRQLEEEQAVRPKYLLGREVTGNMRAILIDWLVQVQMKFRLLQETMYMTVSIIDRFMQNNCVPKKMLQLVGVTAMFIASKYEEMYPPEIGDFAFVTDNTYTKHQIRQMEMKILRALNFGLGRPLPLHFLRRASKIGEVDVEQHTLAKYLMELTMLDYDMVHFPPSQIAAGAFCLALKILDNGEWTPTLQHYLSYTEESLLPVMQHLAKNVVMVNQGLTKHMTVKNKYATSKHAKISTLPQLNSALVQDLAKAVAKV
Chain of cdk4/D (P11802 whole entry): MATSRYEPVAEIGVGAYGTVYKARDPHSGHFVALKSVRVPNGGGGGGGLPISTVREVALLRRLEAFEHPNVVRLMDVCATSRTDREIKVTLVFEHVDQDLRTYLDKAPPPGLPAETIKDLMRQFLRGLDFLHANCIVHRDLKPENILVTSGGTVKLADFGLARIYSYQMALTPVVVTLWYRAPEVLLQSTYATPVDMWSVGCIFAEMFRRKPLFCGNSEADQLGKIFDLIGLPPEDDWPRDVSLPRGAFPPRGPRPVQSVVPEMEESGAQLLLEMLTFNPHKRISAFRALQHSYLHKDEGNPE
Chain of cdk4/D (P24385 whole entry, further chain): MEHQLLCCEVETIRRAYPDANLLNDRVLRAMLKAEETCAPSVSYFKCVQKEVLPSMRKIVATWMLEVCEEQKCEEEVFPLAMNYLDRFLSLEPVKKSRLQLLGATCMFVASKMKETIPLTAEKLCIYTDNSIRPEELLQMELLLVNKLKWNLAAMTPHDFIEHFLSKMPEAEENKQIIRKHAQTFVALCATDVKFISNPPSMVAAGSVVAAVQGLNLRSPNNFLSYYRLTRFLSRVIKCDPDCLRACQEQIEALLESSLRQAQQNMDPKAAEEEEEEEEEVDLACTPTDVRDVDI

SMILES | IC50 (cdk2/cyclinE) | IC50 (Cdk5/p25) | IC50 (cdc2/cyclinB) | IC50 (cdk4/D)
CCC(CC)n1c(=O)ccc2cnc(Nc3cc(F)c(NC(C)=O)c(Cl)c3)nc21 [Example 514, N-{2-Chloro4-[8-(1-ethyl-propyl)-7-oxo-7,8-dihydro-pyrido[2,3-d]pyrimidin-2-ylamino]-6-fluoro-phenyl}-acetamide] | 3100 nM | 1100 nM | 2000 nM | 250 nM
O=c1ccc2cnc(Nc3cccc([N+](=O)[O-])c3)nc2n1CC(F)(F)F [Example 599, 2-(3-Nitro-phenylamino)-8-(2,2,2-trifluoro-ethyl)-8H-pyrido[2,3-d]pyrimidin-7-one] | 1700 nM | 785 nM | 2350 nM | –
CCn1c(=O)ccc2cnc(Nc3cc([N+](=O)[O-])ccc3F)nc21 [Example 297, 8-Ethyl-2-(2-fluoro-5-nitro-phenylamino)-8H-pyrido[2,3-d]pyrimidin-7-one] | 2300 nM | 870 nM | 3700 nM | 3300 nM
O=c1ccc2cnc(Nc3ccc(O)cc3F)nc2n1CC(F)(F)F [Example 596, 2-(2-Fluoro-4-hydroxy-phenylamino)-8-(2,2,2-trifluoro-ethyl)-8H-pyrido[2,3-d]pyrimidin-7-one] | 1300 nM | 720 nM | 1860 nM | –
CCn1c(=O)ccc2cnc(Nc3ccc(C#N)c(C#N)c3)nc21 [Example 298, 4-(8-Ethyl-7-oxo-7,8-dihydro-pyrido[2,3-d]pyrimidin-2-ylamino)-phthalonitrile] | 1400 nM | 430 nM | 1900 nM | 2000 nM
CCCn1c(=O)ccc2cnc(Nc3cc(C(F)(F)F)cc(C(F)(F)F)c3)nc21 [Example 315, 2-(3,5-Bis-trifluoromethyl-phenylamino)-8-propyl-8H-pyrido[2,3-d]pyrimidin-7-one] | 2580 nM | 2440 nM | 2190 nM | –
O=c1ccc2cnc(Nc3ccc4[nH]ncc4c3)nc2n1CC(F)(F)F [Example 594, 2-(1H-Indazol-5-ylamino)-8-(2,2,2-trifluoro-ethyl)-8H-pyrido[2,3-d]pyrimidin-7-one] | 1670 nM | 555 nM | 1900 nM | –
CCn1c(=O)ccc2cnc(Nc3cc(OC)c(OC)c(OC)c3)nc21 [Example 292, 8-Ethyl-2-(3,4,5-trimethoxy-phenylamino)-8H-pyrido[2,3-d]pyrimidin-7-one] | 1200 nM | 610 nM | 860 nM | –

More lines, now with the values ahead:

IC50 (cdk2/cyclinE) | IC50 (Cdk5/p25) | IC50 (cdc2/cyclinB) | IC50 (cdk4/D) | SMILES
65 nM | 58 nM | 165 nM | 515 nM | CCCCn1c(=O)ccc2cnc(Nc3cc(Cl)cc(Cl)c3)nc21 [Example 391, 8-Butyl-2-(3,5-dichloro-phenylamino)-8H-pyrido[2,3-d]pyrimidin-7-one]
910 nM | 300 nM | 1300 nM | – | CCCn1c(=O)ccc2cnc(Nc3cc(OC)c(OC)c(OC)c3)nc21 [Example 334, 8-Propyl-2-(3,4,5-trimethoxy-phenylamino)-8H-pyrido[2,3-d]pyrimidin-7-one]
1000 nM | 660 nM | 1400 nM | 1000 nM | CC(C)n1c(=O)ccc2cnc(Nc3cc([N+](=O)[O-])ccc3F)nc21 [Example 420, 2-(2-Fluoro-5-nitro-phenylamino)-8-isopropyl-8H-pyrido[2,3-d]pyrimidin-7-one]
1030 nM | 2270 nM | 2400 nM | – | CCCCn1c(=O)ccc2cnc(Nc3cc(C(F)(F)F)ccc3F)nc21 [Example 372, 8-Butyl-2-(2-fluoro-5-trifluoromethyl-phenylamino)-8H-pyrido[2,3-d]pyrimidin-7-one]
1200 nM | 230 nM | 3100 nM | – | CCCn1c(=O)ccc2cnc(Nc3ccc(Cl)c(Cl)c3)nc21 [Example 350, 2-(3,4-Dichloro-phenylamino)-8-propyl-8H-pyrido[2,3-d]pyrimidin-7-one]
